Assay results published in PubChem BioAssay AID2060502 (Molecular Pharmacology Branch, DTP, NCI, 2025).

Tested on: 885724-159-R-J1-PDC complex spheroid viability
Test: Anticancer human tumor 885724-159-R-J1-PDC patient-derived pancreatic adenocarcinoma cell line growth inhibition [GQUAD]
Conditions: for IC50: curve of first compound; for viability, T/C: stronger effect = lower value
Method in brief: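 Viability of tumor cells grown as complex spheroids with endothelial and stromal cells, exposed to drug combinations. Top concentration at or near clinical Cmax (else 10 microM), diluted in half-log increments.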

[1] = second compound 0.0316 µM, first compound 0.0316 µM
[2] = second compound 0.0316 µM, first compound 0.1 µM
[3] = second compound 0.0316 µM, first compound 0.316 µM
[4] = second compound 0.0316 µM, first compound 1 µM
[5] = second compound 0.0316 µM, first compound 3.16 µM
[6] = second compound 0.0316 µM, first compound 10 µM
[7] = second compound 0.1 µM, first compound 0.0316 µM
[8] = second compound 0.1 µM, first compound 0.1 µM
[9] = second compound 0.1 µM, first compound 0.316 µM
[10] = second compound 0.1 µM, first compound 1 µM
[11] = second compound 0.1 µM, first compound 3.16 µM
[12] = second compound 0.1 µM, first compound 10 µM
[13] = second compound 0.316 µM, first compound 0.0316 µM
[14] = second compound 0.316 µM, first compound 0.1 µM
[15] = second compound 0.316 µM, first compound 0.316 µM
[16] = second compound 0.316 µM, first compound 1 µM
[17] = second compound 0.316 µM, first compound 3.16 µM
[18] = second compound 0.316 µM, first compound 10 µM
[19] = second compound 1 µM, first compound 0.0316 µM
[20] = second compound 1 µM, first compound 0.1 µM
[21] = second compound 1 µM, first compound 0.316 µM
[22] = second compound 1 µM, first compound 1 µM
[23] = second compound 1 µM, first compound 3.16 µM
[24] = second compound 1 µM, first compound 10 µM
[25] = second compound 3.16 µM, first compound 0.0316 µM
[26] = second compound 3.16 µM, first compound 0.1 µM
[27] = second compound 3.16 µM, first compound 0.316 µM
[28] = second compound 3.16 µM, first compound 1 µM
[29] = second compound 3.16 µM, first compound 3.16 µM
[30] = second compound 3.16 µM, first compound 10 µM
[31] = second compound 10 µM, first compound 0.0316 µM
[32] = second compound 10 µM, first compound 0.1 µM
[33] = second compound 10 µM, first compound 0.316 µM
[34] = second compound 10 µM, first compound 1 µM
[35] = second compound 10 µM, first compound 3.16 µM
[36] = second compound 10 µM, first compound 10 µM
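Note: spheroids exposed to agents for seven days before readout.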
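Throughout, for viability, T/C: percent of vehicle control viability where 100% = DMSO wells.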

Structure (SMILES): C=CCn1c(=O)c2cnc(Nc3ccc(N4CCN(C)CC4)cc3)nc2n1-c1cccc(C(C)(C)O)n1 + CN(C)c1ccc(Nc2c3ccc(NC(=O)CCN4CCCC4)cc3nc3cc(NC(=O)CCN4CCCC4)ccc23)cc1
- IC50 (second compound 0.0316 µM): > 10000 nM
- IC50 (second compound 0.1 µM): > 10000 nM
- IC50 (second compound 0.316 µM): > 10000 nM
- IC50 (second compound 1 µM): 3830 nM
- IC50 (second compound 3.16 µM): 714 nM
- IC50 (second compound 10 µM): 1340 nM
- viability, T/C [1]: 99%
- viability, T/C [2]: 86.2%
- viability, T/C [3]: 74.4%
- viability, T/C [4]: 81.6%
- viability, T/C [5]: 72.4%
- viability, T/C [6]: 73%
- viability, T/C [7]: 95.4%
- viability, T/C [8]: 83.6%
- viability, T/C [9]: 79.3%
- viability, T/C [10]: 73.7%
- viability, T/C [11]: 71.3%
- viability, T/C [12]: 72.5%
- viability, T/C [13]: 92%
- viability, T/C [14]: 81.8%
- viability, T/C [15]: 69.5%
- viability, T/C [16]: 63.4%
- viability, T/C [17]: 57.7%
- viability, T/C [18]: 52.3%
- viability, T/C [19]: 83.5%
- viability, T/C [20]: 66.7%
- viability, T/C [21]: 60.4%
- viability, T/C [22]: 44.1%
- viability, T/C [23]: 57.2%
- viability, T/C [24]: 47.3%
- viability, T/C [25]: 82.6%
- viability, T/C [26]: 60.7%
- viability, T/C [27]: 61.2%
- viability, T/C [28]: 40.7%
- viability, T/C [29]: 52.1%
- viability, T/C [30]: 38.7%
- viability, T/C [31]: 68.3%
- viability, T/C [32]: 69.5%
- viability, T/C [33]: 56.7%
- viability, T/C [34]: 50.4%
- viability, T/C [35]: 45.7%
- viability, T/C [36]: 19.6%

Structure (SMILES): CC(=O)O[C@H]1C(=O)[C@@]2(C)[C@H]([C@H](OC(=O)c3ccccc3)[C@]3(O)C[C@H](OC(=O)[C@H](O)[C@@H](NC(=O)c4ccccc4)c4ccccc4)C(C)=C1C3(C)C)[C@]1(OC(C)=O)CO[C@@H]1C[C@@H]2O + CN(C)c1ccc(Nc2c3ccc(NC(=O)CCN4CCCC4)cc3nc3cc(NC(=O)CCN4CCCC4)ccc23)cc1
- IC50 (second compound 0.0316 µM): > 10000 nM
- IC50 (second compound 0.1 µM): > 10000 nM
- IC50 (second compound 0.316 µM): > 10000 nM
- IC50 (second compound 1 µM): > 10000 nM
- IC50 (second compound 3.16 µM): > 10000 nM
- IC50 (second compound 10 µM): > 10000 nM
- viability, T/C [1]: 92.9%
- viability, T/C [2]: 82.8%
- viability, T/C [3]: 81.8%
- viability, T/C [4]: 85.3%
- viability, T/C [5]: 88%
- viability, T/C [6]: 98.7%
- viability, T/C [7]: 94%
- viability, T/C [8]: 92.7%
- viability, T/C [9]: 82.3%
- viability, T/C [10]: 89.8%
- viability, T/C [11]: 83.9%
- viability, T/C [12]: 96.8%
- viability, T/C [13]: 81.7%
- viability, T/C [14]: 82.4%
- viability, T/C [15]: 83.8%
- viability, T/C [16]: 76.7%
- viability, T/C [17]: 85.5%
- viability, T/C [18]: 81.1%
- viability, T/C [19]: 77.4%
- viability, T/C [20]: 64.3%
- viability, T/C [21]: 78.6%
- viability, T/C [22]: 68%
- viability, T/C [23]: 84.4%
- viability, T/C [24]: 82.5%
- viability, T/C [25]: 77.9%
- viability, T/C [26]: 56.1%
- viability, T/C [27]: 63.6%
- viability, T/C [28]: 66.2%
- viability, T/C [29]: 66.6%
- viability, T/C [30]: 72.1%
- viability, T/C [31]: 66.4%
- viability, T/C [32]: 69.6%
- viability, T/C [33]: 65.4%
- viability, T/C [34]: 67.4%
- viability, T/C [35]: 69.6%
- viability, T/C [36]: 67.7%

Structure (SMILES): CC(C)(O)C1CCC(Nc2ccc3ncc(-c4cccc(C(F)(F)F)c4)n3n2)CC1 (stereo unspecified) + CN(C)c1ccc(Nc2c3ccc(NC(=O)CCN4CCCC4)cc3nc3cc(NC(=O)CCN4CCCC4)ccc23)cc1
- IC50 (second compound 0.0316 µM): 2730 nM
- IC50 (second compound 0.1 µM): 3140 nM
- IC50 (second compound 0.316 µM): 1880 nM
- IC50 (second compound 1 µM): 1620 nM
- IC50 (second compound 3.16 µM): 764 nM
- IC50 (second compound 10 µM): 1190 nM
- viability, T/C [1]: 109%
- viability, T/C [2]: 98%
- viability, T/C [3]: 87%
- viability, T/C [4]: 70.5%
- viability, T/C [5]: 42.1%
- viability, T/C [6]: 41.2%
- viability, T/C [7]: 97.7%
- viability, T/C [8]: 92.8%
- viability, T/C [9]: 80.3%
- viability, T/C [10]: 71.2%
- viability, T/C [11]: 44.8%
- viability, T/C [12]: 44.1%
- viability, T/C [13]: 83.7%
- viability, T/C [14]: 84.2%
- viability, T/C [15]: 71.6%
- viability, T/C [16]: 64.1%
- viability, T/C [17]: 38%
- viability, T/C [18]: 35.7%
- viability, T/C [19]: 83.6%
- viability, T/C [20]: 67.9%
- viability, T/C [21]: 71.1%
- viability, T/C [22]: 62.3%
- viability, T/C [23]: 30.5%
- viability, T/C [24]: 35.6%
- viability, T/C [25]: 76.1%
- viability, T/C [26]: 75.6%
- viability, T/C [27]: 65.9%
- viability, T/C [28]: 44.5%
- viability, T/C [29]: 27.9%
- viability, T/C [30]: 19.3%
- viability, T/C [31]: 62%
- viability, T/C [32]: 63.5%
- viability, T/C [33]: 57.3%
- viability, T/C [34]: 55.7%
- viability, T/C [35]: 20.6%
- viability, T/C [36]: 7.17%
